The data set can be described thus: Solubility measurements of polymorphic Form I and II in biorelevant fluids. To be noted: for solubility at 1.5 h / solubility at 3 h / solubility at 24 h: thermodynamic from solid. The class given is physicochemical. The text has this:
Example 3: Solubility Measurements of Form I and Form II

Structures are written as SMILES. In brackets after ≈: the same amount, converted by molar mass.

On to `NC(=O)N1CCC[C@@H](N(C(=O)NCc2ccc(OC(F)(F)F)cc2F)C2CC2)C1` [Form I, (R)-3-(1-cyclopropyl-3-(2-fluoro-4-(trifluoromethoxy)benzyl)ureido) piperidine-1-carboxamide], for which the concentration in solution (5% HPBCD/2% TPGS, 25 °C, aqueous with cosolvent or surfactant or cyclodextrin, 1.5 h) (solubility at 1.5 h) came to 4960 µg/mL (≈ 11900 µM); the solubility at 1.5 h (FaSSIF, 37 °C, 1.5 h) amounted to 360 µg/mL (≈ 860 µM); the solubility at 1.5 h (SGF, 37 °C, simulated gastric fluid, 1.5 h) was 400 µg/mL (≈ 956 µM). Further, the solubility at 3 h is, setting by setting: (5% HPBCD/2% TPGS, 25 °C, aqueous with cosolvent or surfactant or cyclodextrin, 3 h) 5110 µg/mL (≈ 12200 µM); (FaSSIF, 37 °C, 3 h) 380 µg/mL (≈ 908 µM); (SGF, 37 °C, simulated gastric fluid, 3 h) 420 µg/mL (≈ 1000 µM). The compound also yielded a solubility at 24 h (5% HPBCD/2% TPGS, 25 °C, aqueous with cosolvent or surfactant or cyclodextrin, 24 h) of 5280 µg/mL (≈ 12600 µM); a solubility at 24 h (FaSSIF, 37 °C, 24 h) of 350 µg/mL (≈ 837 µM); a solubility at 24 h (SGF, 37 °C, simulated gastric fluid, 24 h) of 370 µg/mL (≈ 884 µM). The Solubility was 910 µg/mL (≈ 2170 µM) (FeSSIF, 37° C., 1.5 h); 900 µg/mL (≈ 2150 µM) (FeSSIF, 37° C., 3 h); 980 µg/mL (≈ 2340 µM) (FeSSIF, 37° C., 24 h). For the same compound, under “relevant biofluids, in words”, the “Solubility, comparison of the forms” value is “increased solubility relative to Form II”.

Consider `NC(=O)N1CCC[C@@H](N(C(=O)NCc2ccc(OC(F)(F)F)cc2F)C2CC2)C1` [Form II, (R)-3-(1-cyclopropyl-3-(2-fluoro-4-(trifluoromethoxy)benzyl)ureido) piperidine-1-carboxamide], for which the Solubility reads like this: (5% HPBCD/2% TPGS, 25° C., 1.5 h) 4310 µg/mL (≈ 10300 µM); (5% HPBCD/2% TPGS, 25° C., 3 h) 4270 µg/mL (≈ 10200 µM); (5% HPBCD/2% TPGS, 25° C., 24 h) 4760 µg/mL (≈ 11400 µM); (FaSSIF, 37° C., 1.5 h) 310 µg/mL (≈ 741 µM); (FaSSIF, 37° C., 3 h) 270 µg/mL (≈ 645 µM); (FaSSIF, 37° C., 24 h) 240 µg/mL (≈ 574 µM). The Solubility stood at 260 µg/mL (≈ 621 µM) (SGF, 37° C., 1.5 h); 270 µg/mL (≈ 645 µM) (SGF, 37° C., 3 h); 300 µg/mL (≈ 717 µM) (SGF, 37° C., 24 h). This compound also yielded a solubility at 1.5 h (FeSSIF, 37 °C, 1.5 h) of 740 µg/mL (≈ 1770 µM). This compound also showed a solubility at 3 h (FeSSIF, 37 °C, 3 h) of 720 µg/mL (≈ 1720 µM). Further, under “FeSSIF, 37 °C, 24 h”, the solubility at 24 h came to 720 µg/mL (≈ 1720 µM).

As usually defined, the solubility is the concentration that dissolves in the medium under given conditions. Lower therefore signals little dissolved substance. As a reminder, the Solubility is the concentration that dissolves in the medium under given conditions.

These data come from patent US20260200850A1, “CRYSTALLINE FORMS OF A PIPERIDINE INHIBITOR OF SLC6A19 FUNCTION” (Jnana Therapeutics Inc., priority 2022, published 2026).
